Structures can show the parent of a compound that is named as a salt. Where two headings read alike, the source gives them in different places.
Tests used:
[1] = test system: compound 48/80-induced lethality; experiment: Protection of rats from compound 48/80-induced lethality; format: in vivo, rat (male, inbred Wistar strain); details: Rattus norvegicus, 4 h, read-out: Compound 48/80 lethality test in rats-ED50
Method: Protection of rats from compound 48/80-induced lethality
The protection from compound 48/80-induced lethal circulatory collapse appears to be a simple way of evaluating quantitatively the antihistaminic activity of test compounds. Male rats of an inbred Wistar strain, weighing 240-260 g were used in the experiment. After overnight starvation the rats were transferred to conditioned laboratories (temp.=21±1° C., relative humidity=65±5%).
The rats were treated subcutaneously or orally with a test compound or with the solvent (NaCl solution, 0.9%). […] Survival after 4 hours is therefore considered to be a safe criterion of a protective effect of drug administration.
The ED50 -values of the compounds of formula (I) are listed in the first column of table 1. Said ED50 -values are the values in mg/kg body weight at which the tested compounds protect 50% of the tested animals against compound 48/80-induced lethality.

serotonin = experiment: Antagonistic activity on the effects of serotonin in the gastric lesion test (lesions induced by compound 48/80); format: in vivo, rat (male, Wistar inbred strain)
Text: The compounds of formula (I) and the pharmaceutically acceptable acid addition salts thereof are also potent serotonin-antagonists. The potency of the subject compounds as serotonin-antagonists is clearly evidenced by the results obtained in the following tests wherein the antagonistic activity of the subject compounds on the effect of serotonin is examined.
Antagonistic activity on the effects of serotonin in the gastric lesion test
Comound 48/80 (a mixture of oligomers obtained by condensation of 4-methoxy-N-methylbenzeneethanamine and formaldehyde) is a potent releaser of vasoactive amines from endogenous stores such as, for example, histamine and serotonin. […] The shock, followed by dead, can be avoided if the rats are pretreated with a classical H 1 antagonist.
Male rats of a Wistar inbred strain, weighing 220-250 g, were starved overnight, water being available ad libitum. The test compounds were administered orally as a solution or as a suspension in aqueous medium. A control rat and a "blank" rat received the test compound. One hour later 5-[4-(diphenylmethyl)-1-piperazinylmethyl]-1-methyl-1H-benzimidazole-2-methanol was administered subcutaneously to all rats at the dose of 2.5 mg/kg.
Four hours after the intravenous injection of compound 48/80, the rats were decapitated and the stomachs were removed. Subsequently the stomachs ere inspected for distension and contents (blood, fluid, food) and thoroughly rinsed. The macroscopic lesions were scored from 0 to +++, 0 corresponding to complete absence of visible lesions and the highest score corresponding to reddish rough patches covering more than half the glandular area.

[2] = Rattus norvegicus, po, 4 h; read-out: gastric lesion test ED50 (distension of the stomach and lesions in the glandular area completely absent in 50% of rats)
[3] = Rattus norvegicus, po, 4 h, read-out: gastric lesion test ED50 (distension of the stomach and lesions in the glandular area completely absent in 50% of rats)

Row | Structure (SMILES) | ED50 [1] [mg/kg] | ED50 (serotonin; [2]) [mg/kg] | ED50 (serotonin; [3]) [mg/kg]
1 | O=c1[nH]c2ccccc2c(=O)n1CCN1CCC(Nc2nc3ccccc3n2Cc2ccco2)CC1 [Compound 24] | 0.08 | 0.63 | –
2 | Cc1nc2sccn2c(=O)c1CCN1CCC(Nc2nc3cccnc3n2Cc2ccco2)CC1 [Compound 28] | 0.04 | – | 0.16
3 | Cc1nc2sccn2c(=O)c1CCN1CCC(Nc2nc3ccccc3n2Cc2ccco2)CC1 [Compound 31] | 0.04 | 0.02 | –
4 | Cn1c(=O)n(CCN2CCC(Nc3nc4ccccc4n3Cc3ccco3)CC2)c(=O)c2ccccc21 [Compound 34] | 0.08 | 0.16 | –
5 | Cn1c(=O)c2c(ncn2CCN2CCC(Nc3nc4ccccc4n3Cc3ccco3)CC2)n(C)c1=O [Compound 39] | 0.16 | 0.63 | –
6 | Fc1ccc(Cn2c(NC3CCN(Cc4cn5cccnc5n4)CC3)nc3ccccc32)cc1 [Compound 40] | 0.16 | – | 0.16
7 | Fc1ccc(Cn2c(NC3CCN(Cc4cn5ccccc5n4)CC3)nc3ccccc32)cc1 [Compound 41] | 0.16 | 0.63 | –
8 | Fc1ccc(Cn2c(NC3CCN(Cc4cn5ccncc5n4)CC3)nc3ccccc32)cc1 [Compound 49] | 0.16 | 0.63 | –
9 | Cc1nc2ccccn2c(=O)c1CCN1CCC(Nc2nc3ccccc3n2Cc2cccs2)CC1 [Compound 52] | 0.31 | – | 1.25
10 | Cc1nc2ccccn2c(=O)c1CCN1CCC(Nc2nc3cccnc3n2Cc2ccccn2)CC1 [Compound 55] | 0.08 | 0.16 | –
11 | Cc1nc2n(c(=O)c1CCN1CCC(Nc3nc4cccnc4n3Cc3ccco3)CC1)CC(C)CC2 (centres unmarked) [Compound 58] | 0.04 | 0.63 | –
12 | Cc1nc2n(c(=O)c1CCN1CCC(Nc3nc4ccccc4n3Cc3cccs3)CC1)CCCC2 [Compound 59] | 0.08 | 0.31 | –
13 | Cc1nc2n(c(=O)c1CCN1CCC(Nc3nc4cccnc4n3Cc3ccc(F)cc3)CC1)CCCC2 [Compound 61] | 0.04 | 0.31 | –
14 | Cc1nc2n(c(=O)c1CCN1CCC(Nc3nc4ccccc4n3Cc3cscn3)CC1)CCCC2 [Compound 62] | 0.04 | – | 0.63
15 | Cc1nc2n(c(=O)c1CCN1CCC(Nc3nc4cccnc4n3Cc3ccco3)CC1)C(C)CC(C)C2 (centres unmarked) [Compound 63] | 0.08 | 0.63 | –
16 | Cc1nc2ccccn2c(=O)c1CCN1CCC(Nc2nc3cc(F)c(F)cc3n2Cc2ccc(F)cc2)CC1 [Compound 70] | 0.31 | 0.63 | –
17 | Cc1ccn2c(=O)c(CCN3CCC(Nc4nc5cccnc5n4Cc4ccco4)CC3)c(C)nc2c1 [Compound 74] | 0.04 | 0.16 | –
18 | Cc1cc(C)n2c(=O)c(CCN3CCC(Nc4nc5cccnc5n4Cc4ccco4)CC3)c(C)nc2c1 [Compound 77] | 0.16 | 0.31 | –
19 | OCCn1cnc2c(NCCN3CCC(Nc4nc5ccccc5n4Cc4ccc(F)cc4)CC3)ncnc21 [Compound 93, 6-[[2-[4-[[1-[(4-fluorophenyl)methyl]-1H-benzimidazol-2-yl]amino]-1-piperidinyl]ethyl]amino]-9H-purine-9-ethanol] | 0.08 | 0.16 | –
20 | Cn1cnc2c(NCCN3CCC(Nc4nc5ccccc5n4Cc4ccc(F)cc4)CC3)ncnc21 [Compound 94] | 0.31 | 0.63 | –

Row | Structure (SMILES) | ED50 [1] [mg/kg] | ED50 (serotonin; [2]) [mg/kg] | ED50 (serotonin; [3]) [mg/kg]
21 | Fc1ccc(Cn2c(NC3CCN(CCNc4ncnc5c4ncn5Cc4ccccc4)CC3)nc3ccccc32)cc1 [Compound 95] | 0.16 | 0.63 | –
22 | Fc1ccc(Cn2c(NC3CCN(CCNc4ncnc5[nH]cnc45)CC3)nc3ccccc32)cc1 [Compound 97] | 0.08 | 0.04 | –
23 | Fc1ccc(Cn2c(NC3CCN(CCNc4nc5cccnc5s4)CC3)nc3ccccc32)cc1 [Compound 103, N-[2-[4-[[1-[(4-fluorophenyl)methyl]-1H-benzimidazol-2-yl]amino]-1-piperidinyl]ethyl]thiazolo[5,4-b]pyridin-2-amine] | 0.16 | 0.63 | –
24 | Fc1ccc(Cn2c(NC3CCN(CCNc4nc5cnccc5s4)CC3)nc3ccccc32)cc1 [Compound 104, N-[2-[4-[[1-[(4-fluorophenyl)methyl]-1H-benzimidazol-2-yl]amino]-1-piperidinyl]ethyl]thiazolo[4,5-c]pyridin-2-amine] | 0.16 | 0.31 | –
25 | Cn1c(NCCN2CCC(Nc3nc4ccccc4n3Cc3ccc(F)cc3)CC2)nc2cnccc21.O [Compound 108, N-[2-[4-[[1-[(4-fluorophenyl)methyl]-1H-benzimidazol-2-yl]amino]-1-piperidinyl]ethyl]-1-methyl-1H-imidazo[4,5-c]pyridin-2-amine monohydrate] | 0.04 | 0.16 | –
26 | Fc1ccc(Cn2c(NC3CCN(CCNc4nc5cnccc5[nH]4)CC3)nc3ccccc32)cc1 [Compound 109] | 0.04 | 0.04 | –
27 | Fc1ccc(Cn2c(NC3CCN(CCNc4nc5ncccc5[nH]4)CC3)nc3ccccc32)cc1 [Compound 110] | 0.16 | 0.31 | –
28 | c1coc(Cn2c(NC3CCN(CCNc4nc5cnccc5[nH]4)CC3)nc3ccccc32)c1 [Compound 111] | 0.02 | 0.08 | –
29 | Fc1ccc(Cn2c(NC3CCN(CCNc4nc5cnccc5[nH]4)CC3)nc3ncccc32)cc1 [Compound 112] | 0.02 | 0.16 | –
30 | Fc1ccc(Cn2c(NC3CCN(CCNc4nc5cnccc5[nH]4)CC3)nc3cccnc32)cc1 [Compound 114] | 0.02 | 0.63 | –
31 | c1ccc(Cn2c(NC3CCN(CCNc4nc5cnccc5[nH]4)CC3)nc3ccccc32)nc1 [Compound 115] | 0.02 | – | 0.16
32 | c1csc(Cn2c(NC3CCN(CCNc4nc5cnccc5[nH]4)CC3)nc3ccccc32)c1 [Compound 117] | 0.02 | 0.31 | –
33 | c1coc(Cn2c(NC3CCN(CCNc4nc5cnccc5[nH]4)CC3)nc3cccnc32)c1 [Compound 119] | 0.04 | 0.63 | –
34 | Fc1ccc(Cn2c(NC3CCN(CCCCNc4nc5cnccc5[nH]4)CC3)nc3ccccc32)cc1 [Compound 121, N-[4-[4-[[1-[(4-fluorophenyl)methyl]-1H-benzimidazol-2-yl]amino]-1-piperidinyl]butyl]-1H-imidazo[4,5-c]pyridin-2-amine] | 0.02 | 0.02 | –
35 | Fc1ccc(Cn2c(NC3CCN(CCCNc4nc5cnccc5[nH]4)CC3)nc3ccccc32)cc1 [Compound 122, N-[3-[4-[[1-[(4-fluorophenyl)methyl]-1H-benzimidazol-2-yl]amino]-1-piperidinyl]propyl]-1H-imidazo[4,5-c]pyridin-2-amine ethanedioate(2:7)] | 0.02 | 0.63 | –
36 | Cn1c(=S)n(CCN2CCC(Nc3nc4ccccc4n3Cc3ccco3)CC2)c(=O)c2ccccc21 [Compound 129, 3-[2-[4-[[1-(2-furanylmethyl)-1H-benzimidazol-2-yl]amino]-1-piperidinyl]ethyl]-2,3-dihydro-1-methyl-2-thioxo-4(1H)-quinazolinone] | 0.08 | 0.31 | –
37 | Fc1ccc(Cn2c(NC3CCN(CCn4c(=S)[nH]c5ccccc54)CC3)nc3ccccc32)cc1 [Compound 142, 1-[2-[4-[[1-[(4-fluorophenyl)methyl]-1H-benzimidazole-2-yl]amino]-1-piperidinyl]ethyl]-1,3-dihydro-2H-benzimidazole-2-thione] | 0.16 | 0.63 | –
38 | Fc1ccc(Cn2c(NC3CCN(CCn4c(=S)[nH]c5cncnc54)CC3)nc3ccccc32)cc1 [Compound 143, 9-[2-[4-[[1-[(4-fluorophenyl)methyl]-1H-benzimidazol-2-yl]amino]-1-piperidinyl]ethyl]-7,9-dihydro-8H-purine-8-thione trihydrochloride.dihydrate] | 0.31 | 0.63 | –
39 | Cc1nc2nc(NCCN3CCC(Nc4nc5ccccc5n4Cc4ccc(F)cc4)CC3)ccc2[nH]1 [Compound 146, N-[2-[4-[[1-[(4-fluorophenyl)methyl]-1H-benzimidazol-2-yl]amino]-1-piperidinyl]ethyl]-2-methyl-1H-imidazo[4,5-b]pyridin-5-amine] | 0.04 | 0.08 | –
40 | CCOC(=O)N1CCc2nc(NCCN3CCC(Nc4nc5ccccc5n4Cc4ccc(F)cc4)CC3)sc2C1 [Compound 147, ethyl 2-[[2-[4-[[1-[4-fluorophenyl)methyl]-1H-benzimidazol-2-yl]amino]-1-piperidinyl]ethyl]amino]-4,5-dihydro-thiazolo[4,5-d]pyridine-6(7H)-carboxylate (E)-2-butenedioate (1:2) monohydrate] | 0.31 | 0.63 | –

Reference: patent US4695569A, “Bicyclic heterocyclyl containing N-(bicyclic heterocyclyl)-4-piperidinamines” (Janssen Pharmaceutica N.V., priority 1987, dated 1987)
